Assay results as given in patent US20260042764A1, “COMPOSITIONS AND METHODS FOR INHIBITION OF KRAS” (TheRas, Inc., priority 2022, published 2026).

Experiments:
[1] = target: T1, Avi-KRAS G12D (2-169) GTP/RAF1 RBD-3xFLAG (51-131) (Homo sapiens, UniProt P01116, G12D); experiment: Raf1-KRAS G12D-GTP disruption HTRF assay (Biological Example 3); assay type: binding; details: KRAS G12D, GTP-loaded
T1 construct: Avi-KRAS G12D (2-169)
In short: (§1)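 50 nM Avi-KRAS (2-169) GTP/RAF1 RBD complex; 75 nM RBD-Avi; pH 7.5 Tris buffer, 10% DMSO; cpd 30 μM top, 3x, 10 pts; 1 h RT, 700 rpm; HTRF, % of DMSO.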

SW620 cells (KRAS G12V) = experiment: Cell-based pERK HTRF assay in SW620 cell (Biological Example 4); details: Homo sapiens, SW-620, SW620 (KRAS G12V) cells
In short: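 This assay measures inhibition of ERK phosphorylation downstream of KRAS G12V in intact SW620 cells. Compounds are applied for 4 h over nine half-log concentrations starting at 1 μM, and pERK is quantified by HTRF.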

[2] = target: T2, Avi-KRAS G12C (2-169) GTP/RAF1 RBD-3xFLAG (51-131) (Homo sapiens, UniProt P01116, G12C); experiment: Raf1-KRAS G12C-GTP disruption HTRF assay (Biological Example 3); assay type: binding; details: KRAS G12C, GTP-loaded
T2 construct: Avi-KRAS G12C (2-169)
T2 sequence (P01116 2-169 isoform P01116-2 G12C): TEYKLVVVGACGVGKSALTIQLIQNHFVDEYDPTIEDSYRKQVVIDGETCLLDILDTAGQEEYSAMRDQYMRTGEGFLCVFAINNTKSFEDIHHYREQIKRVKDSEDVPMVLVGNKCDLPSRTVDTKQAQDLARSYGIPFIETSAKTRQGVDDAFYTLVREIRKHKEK
In short: as §1

[3] = target: T3, Avi-KRAS G12D (1-169) GppNHp/RAF1 RBD-3xFLAG (52-151) (Homo sapiens, UniProt P01116, G12D); experiment: Raf1-KRAS G12D-GppNHP disruption HTRF assay (Biological Example 1); assay type: binding; details: KRAS G12D-GppNHp/RAF1 RBD HTRF
T3 construct: Avi-KRAS G12D (1-169)
T3 sequence (P01116 1-169 isoform P01116-2 G12D): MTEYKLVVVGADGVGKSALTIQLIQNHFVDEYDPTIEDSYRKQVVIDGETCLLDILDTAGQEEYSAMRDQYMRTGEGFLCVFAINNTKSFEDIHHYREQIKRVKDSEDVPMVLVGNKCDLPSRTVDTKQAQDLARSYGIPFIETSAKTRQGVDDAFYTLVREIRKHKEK
In short: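 First, protein mix in Tris pH 7.5 buffer with NaCl, MgCl2, BSA, Tween and 10% DMSO is incubated 1 h at room temperature. Next, reagent mix is added and incubated a further 1 h at room temperature. Finally, HTRF is read and activity normalized to DMSO.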

T1 sequence (P01116 2-169 isoform P01116-2 G12D): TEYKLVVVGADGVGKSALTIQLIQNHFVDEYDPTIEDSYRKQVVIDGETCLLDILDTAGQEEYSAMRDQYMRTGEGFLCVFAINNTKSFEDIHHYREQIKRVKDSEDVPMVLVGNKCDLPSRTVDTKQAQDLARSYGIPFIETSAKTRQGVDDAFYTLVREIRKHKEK

IC50 [1] [µM] | IC50 (SW620 cells (KRAS G12V)) [µM] | IC50 (SW620 cells (KRAS G12V); pERK HTRF) [µM] | IC50 [2] [µM] | IC50 [3] [µM] | SMILES
≤ 0.1 | < 0.1 | < 0.1 | ≤ 0.1 | < 0.1 | CCN(c1nc(OC[C@@]23CCCN2C[C@H](F)C3)nc2c(F)c(-c3ccc(F)c4sc(N)c(C#N)c34)c(C(F)(F)F)cc12)[C@H]1C[C@H]2CN(C)C(=O)N2C1 (atropisomer, axis not shown; (aS)) [Compound 543, 2-amino-4-((S)-4-(ethyl((6S,7aS)-2-methyl-3-oxohexahydro-1H-pyrrolo[1,2-c]imidazol-6-yl)amino)-8-fluoro-2-(((2R,7aS)-2-fluorotetrahydro-1H-pyrrolizin-7a(5H)-yl)methoxy)-6-(trifluoromethyl)quinazolin-7-yl)-7-fluorobenzo[b]thiophene-3-carbonitrile]
≤ 0.1 | < 0.1 | < 0.1 | ≤ 0.1 | < 0.1 | CCN1C[C@@H](N(CC)c2nc(OC[C@@]34CCCN3C[C@H](F)C4)nc3c(F)c(-c4ccc(F)c5sc(N)c(C#N)c45)c(C(F)(F)F)cc23)CC1=O [Compound 529, 2-amino-4-(4-(ethyl((S)-1-ethyl-5-oxopyrrolidin-3-yl)amino)-8-fluoro-2-(((2R,7aS)-2-fluorotetrahydro-1H-pyrrolizin-7a(5H)-yl)methoxy)-6-(trifluoromethyl)quinazolin-7-yl)-7-fluorobenzo[b]thiophene-3-carbonitrile]
≤ 0.1 | < 0.1 | < 0.1 | 0.1 to 1 | < 0.1 | CCN(c1nc(OC[C@@]23CCCN2C[C@H](F)C3)nc2c(F)c(-c3ccc(F)c4sc(N)c(C#N)c34)c(C(F)(F)F)cc12)[C@@H]1CC(=O)N(C2CC2)C1 [Compound 537]
≤ 0.1 | < 0.1 | < 0.1 | ≤ 0.1 | < 0.1 | CCN(c1nc(OC[C@@]23CCCN2C[C@H](F)C3)nc2c(F)c(-c3ccc(F)c4sc(N)c(C#N)c34)c(C(F)(F)F)cc12)[C@H]1C[C@H]2COC(=O)N2C1 (atropisomer, axis not shown; (aS)) [Compound 518, 2-amino-4-((S)-4-(ethyl((6S,7aS)-3-oxotetrahydro-1H,3H-pyrrolo[1,2-c]oxazol-6-yl)amino)-8-fluoro-2-(((2R,7aS)-2-fluorotetrahydro-1H-pyrrolizin-7a(5H)-yl)methoxy)-6-(trifluoromethyl)quinazolin-7-yl)-7-fluorobenzo[b]thiophene-3-carbonitrile]
0.1 to 1 | < 0.1 | < 0.1 | 0.1 to 1 | 0.1 to 1 | CCN(c1nc(OC[C@@]23CCCN2C[C@H](F)C3)nc2c(F)c(-c3ccc(F)c4sc(N)c(C#N)c34)c(C(F)(F)F)cc12)[C@@H]1C[C@@H](C)N(C(C)=O)C1 (atropisomer, axis not shown) [Compound 527]
